Experimental data taken from US8003348B2, “Method for the mass expression of an antimicrobial peptide by co-expression of a basic antimicrobial peptide and an acidic peptide using a translational coupling system” (Korea Advanced Institute of Science and Technology, priority 2007, dated 2011).

Test: antimicrobial activity of the recombinant antimicrobial peptide
Type: cell-based
Conditions: recombinant histonin II purified from E. coli BL21(DE3)/pmIF3H, compared with naturally-occurring antimicrobial peptide

Sequence: RAGLQFPVGRLLRRLLRRLLR (histonin II peptide) [recombinant antimicrobial peptide]
- antimicrobial activity: substantially the same antimicrobial activity as a naturally-occurring antimicrobial peptide
